Like-named read-outs stand apart in the source and are kept apart here.
What was measured:
IRAK4 [1] = target: T1, IRAK4 (Homo sapiens, UniProt Q9NWZ3); test: Hibit fluorescence detection of proteolysis (IRAK4-HiBiT in HEK293T cells); assay type: cell-based; parameters: host or cells: HEK293T (ATCC); details: for Dmax: HEK-293T; for DC50: IRAK4-HiBiT, HEK293T cells, 24 h
T1 sequence (Q9NWZ3 1-460): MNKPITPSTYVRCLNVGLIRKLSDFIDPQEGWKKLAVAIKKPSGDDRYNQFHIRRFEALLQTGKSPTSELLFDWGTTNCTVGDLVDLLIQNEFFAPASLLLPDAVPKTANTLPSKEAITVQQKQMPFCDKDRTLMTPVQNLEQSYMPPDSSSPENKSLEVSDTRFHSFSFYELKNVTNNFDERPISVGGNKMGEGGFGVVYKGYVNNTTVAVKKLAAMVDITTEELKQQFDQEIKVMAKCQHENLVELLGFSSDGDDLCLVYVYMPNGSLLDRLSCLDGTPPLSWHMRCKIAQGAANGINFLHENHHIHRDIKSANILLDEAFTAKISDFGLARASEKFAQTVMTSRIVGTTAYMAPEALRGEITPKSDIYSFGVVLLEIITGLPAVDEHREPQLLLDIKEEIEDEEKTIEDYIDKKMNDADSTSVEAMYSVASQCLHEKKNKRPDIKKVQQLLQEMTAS
How it was run: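 Degradation read-out: luminescence from lytic HiBiT detection (15 min, room temperature) after 24 h compound exposure (37 °C, 5% CO2) of HEK293T cells transiently expressing IRAK4 fused to a HiBiT tag. Data fitted to a bell-shaped four-parameter model giving two EC50 values.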

IRAK4 [2] = target: T1, IRAK4; test: WB detection of proteolysis (Western Blot, THP-1 cells); assay type: cell-based; details: Western Blot, THP-1 cells, 24 h; for DC50: read-out: DC50; for Dmax: read-out: Dmax
How it was run: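 IRAK4 level in RIPA lysates read by Western blot with Odyssey imaging; values from bell-shaped non-linear fit with two four-parameter sections (Plateau1, Plateau2, Dip, LogEC50_1/2, nH1/2).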

CYP1A2 = target: T2, CYP1A2 (Homo sapiens, UniProt P05177); test: Inhibitory effect on human liver microsome CYP450 enzyme; assay type: in vitro ADME; details: human liver microsomes, substrate Phenacetin
T2 construct: 0.05 mg/mL liver microsomes (BioIVT, IHG) phosphate buffer solution; tissue BioIVT IHG; host or cells: human liver microsomes
T2 sequence (P05177 1-516): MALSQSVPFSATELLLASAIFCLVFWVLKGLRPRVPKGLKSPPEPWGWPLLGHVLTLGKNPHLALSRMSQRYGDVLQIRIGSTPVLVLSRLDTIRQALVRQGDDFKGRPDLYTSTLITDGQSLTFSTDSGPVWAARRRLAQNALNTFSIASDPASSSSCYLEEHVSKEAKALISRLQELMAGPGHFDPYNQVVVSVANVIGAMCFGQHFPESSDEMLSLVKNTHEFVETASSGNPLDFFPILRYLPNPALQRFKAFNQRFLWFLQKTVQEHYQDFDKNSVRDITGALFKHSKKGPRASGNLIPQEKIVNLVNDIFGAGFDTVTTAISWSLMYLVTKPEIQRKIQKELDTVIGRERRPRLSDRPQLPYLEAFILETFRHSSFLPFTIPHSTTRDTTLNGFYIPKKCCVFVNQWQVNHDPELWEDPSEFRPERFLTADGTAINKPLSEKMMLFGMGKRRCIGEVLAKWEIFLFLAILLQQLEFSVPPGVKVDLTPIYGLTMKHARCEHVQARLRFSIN
Description: (§1) In this experiment, the compound, liver microsomes and different CYP isoform enzyme substrates were incubated in a 37°C water bath, the amount of substrate metabolites generated was measured, and the inhibitory effect of the compound of the present disclosure on CYP enzyme was evaluated based on the IC50 value.
(§2) i. The compound was diluted with DMSO (Aladdin, catalog number: D103273-500ml) to concentrations of 0, 0.02, 0.06, 0.2, 0.6, 2 and 6 mM. The positive reference inhibitors for each CYP isoform and their concentrations are shown in Table 4 Table 4 Positive reference inhibitors for CYP isoform enzymes and their concentrations
(§3) ii. Phosphate buffer (sigma: V900050-500G) was used to formulate the substrate solution for each CYP isoform enzyme. Table 5 The substrate and the concentration thereof for CYP isoform enzyme
(§4) iii. Sample incubation. 1 µL of each concentration of the compound and positive reference inhibitor for CYP isoform enzyme were taken and placed into a 96-deep well plate (A-gen: P-1.0-RD-96-S), and 169 µL of 0.05 mg/mL liver microsomes (BioIVT, IHG) phosphate buffer solution (using 0.2 mg/mL liver microsomes for CYP2C19) was added. After uniform mixing, the plate was placed in a 37°C water bath (Shanghai Jinghong Experimental Equipment Co., Ltd., DK-500) with shaking for pre-incubation for 15 min. 10 µL of substrate (adding 1 µL of substrate for CYP3A4-Testosterone) and 20 µL of 10 mM NADPH phosphate buffer solution (MCE, HYF003/CS-4998) were added. After uniform mixing, the plate was incubated in a water bath with shaking for the following time: CYP1A2: 20 min, CYP2C9: 10 min, CYP2C19: 10 min, CYP2D6: 10 min, CYP3A4-Testosterone: 10 min, CYP3A4-Midazolam: 5 min. 400 µL of glacial acetonitrile/methanol (v/v, 1:1) containing an internal standard (500 nM tolbutamide, 5 nM terfenadine) was added to terminate the reaction. After centrifugation at 4000 rpm at 4°C for 40 min, the supernatant was taken and diluted with pure water according to the response of the metabolite of the substrate, and then UPLC-MS/MS (Sciex, Q-Trap 4500) was used for detection to obtain the peak area. The C18 chromatographic column was Kinetex 2.6u C18 100A (50 mm*3 mm).
(§5) The inhibitory effect of the compound on each P450 enzyme in human liver microsomes was calculated as the percentage of reduced metabolite formation compared with the non-inhibitory control (i.e. blank DMSO). The IC50 value of the compound for each P450 enzyme in human liver microsomes was calculated with the logarithm of the remaining activity and the inhibitor concentration using Graphpad Prism software. The calculation equation was as follows: Peak area ratio = compound peak area / internal standard peak area [formula] [formula]
(§6) In Graphpad Prism software, the IC50 value was calculated using the standard four-parameter curve fitting algorithm.

CYP2C19 = target: T3, CYP2C19 (Homo sapiens, UniProt P33261); test: as above; assay type: in vitro ADME; details: human liver microsomes, substrate Mephenytoin
T3 construct: (using 0.2 mg/mL liver microsomes for CYP2C19); tissue BioIVT IHG; host or cells: human liver microsomes
T3 sequence (P33261 whole entry): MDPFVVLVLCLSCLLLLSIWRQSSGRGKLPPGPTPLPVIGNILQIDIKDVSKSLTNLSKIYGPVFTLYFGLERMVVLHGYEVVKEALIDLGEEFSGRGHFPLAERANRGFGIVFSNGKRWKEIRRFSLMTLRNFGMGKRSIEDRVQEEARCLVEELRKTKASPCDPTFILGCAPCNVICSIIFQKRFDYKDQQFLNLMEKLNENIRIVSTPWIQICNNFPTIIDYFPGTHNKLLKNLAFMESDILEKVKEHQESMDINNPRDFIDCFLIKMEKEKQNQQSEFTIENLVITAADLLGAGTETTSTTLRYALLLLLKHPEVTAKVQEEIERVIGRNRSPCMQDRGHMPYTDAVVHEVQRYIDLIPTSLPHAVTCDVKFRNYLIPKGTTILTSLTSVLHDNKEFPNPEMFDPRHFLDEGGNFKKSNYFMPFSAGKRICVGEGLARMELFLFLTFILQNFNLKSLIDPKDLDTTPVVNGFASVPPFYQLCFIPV
Description: as §1, §2, §3, §4, §5, §6

CYP2D6 = target: T4, CYP2D6 (Homo sapiens, UniProt P10635); test: as above; assay type: in vitro ADME; details: human liver microsomes, substrate Dextromethorphan
T4 construct: 0.05 mg/mL liver microsomes (BioIVT, IHG) phosphate buffer solution; tissue BioIVT IHG; host or cells: human liver microsomes
T4 sequence (P10635 whole entry): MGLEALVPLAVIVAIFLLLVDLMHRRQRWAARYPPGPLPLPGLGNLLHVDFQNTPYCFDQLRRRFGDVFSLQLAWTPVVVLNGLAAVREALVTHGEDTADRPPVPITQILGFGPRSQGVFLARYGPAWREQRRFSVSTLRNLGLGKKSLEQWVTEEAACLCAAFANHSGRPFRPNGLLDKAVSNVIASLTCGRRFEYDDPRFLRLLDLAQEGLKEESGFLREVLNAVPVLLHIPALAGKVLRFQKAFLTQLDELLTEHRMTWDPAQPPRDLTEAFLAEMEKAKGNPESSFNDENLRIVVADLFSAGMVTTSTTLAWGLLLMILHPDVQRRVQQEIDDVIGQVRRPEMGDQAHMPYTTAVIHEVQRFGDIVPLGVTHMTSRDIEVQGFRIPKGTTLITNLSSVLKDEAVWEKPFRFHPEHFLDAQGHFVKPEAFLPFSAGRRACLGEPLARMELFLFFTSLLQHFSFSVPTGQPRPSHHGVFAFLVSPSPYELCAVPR
Description: as §1, §2, §3, §4, §5, §6

CYP2C9 = target: T5, CYP2C9 (Homo sapiens, UniProt P11712); test: as above; assay type: in vitro ADME; details: human liver microsomes, substrate Diclofenac Sodium
T5 construct: 0.05 mg/mL liver microsomes (BioIVT, IHG) phosphate buffer solution; tissue BioIVT IHG; host or cells: human liver microsomes
T5 sequence (P11712 whole entry): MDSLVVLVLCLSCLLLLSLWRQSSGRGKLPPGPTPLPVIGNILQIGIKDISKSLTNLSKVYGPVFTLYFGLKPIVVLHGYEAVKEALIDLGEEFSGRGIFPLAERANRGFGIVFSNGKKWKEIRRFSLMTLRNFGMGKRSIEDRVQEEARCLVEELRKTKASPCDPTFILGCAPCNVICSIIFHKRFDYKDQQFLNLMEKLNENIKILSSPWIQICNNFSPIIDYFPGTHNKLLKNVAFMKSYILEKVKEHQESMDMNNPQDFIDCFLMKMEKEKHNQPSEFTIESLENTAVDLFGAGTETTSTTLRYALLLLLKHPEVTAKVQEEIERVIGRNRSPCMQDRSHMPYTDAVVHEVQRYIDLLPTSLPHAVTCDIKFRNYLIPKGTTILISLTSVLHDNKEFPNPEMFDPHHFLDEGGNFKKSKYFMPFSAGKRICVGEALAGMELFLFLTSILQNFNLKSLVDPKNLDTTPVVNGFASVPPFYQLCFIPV
Description: as §1, §2, §3, §4, §5, §6

CYP3A4 = target: T6, CYP3A4 (Homo sapiens, UniProt P08684); test: as above; assay type: in vitro ADME; details: liver microsomes
T6 construct: 0.05 mg/mL liver microsomes (BioIVT, IHG) phosphate buffer solution; tissue BioIVT IHG; host or cells: human liver microsomes
T6 sequence (P08684 whole entry): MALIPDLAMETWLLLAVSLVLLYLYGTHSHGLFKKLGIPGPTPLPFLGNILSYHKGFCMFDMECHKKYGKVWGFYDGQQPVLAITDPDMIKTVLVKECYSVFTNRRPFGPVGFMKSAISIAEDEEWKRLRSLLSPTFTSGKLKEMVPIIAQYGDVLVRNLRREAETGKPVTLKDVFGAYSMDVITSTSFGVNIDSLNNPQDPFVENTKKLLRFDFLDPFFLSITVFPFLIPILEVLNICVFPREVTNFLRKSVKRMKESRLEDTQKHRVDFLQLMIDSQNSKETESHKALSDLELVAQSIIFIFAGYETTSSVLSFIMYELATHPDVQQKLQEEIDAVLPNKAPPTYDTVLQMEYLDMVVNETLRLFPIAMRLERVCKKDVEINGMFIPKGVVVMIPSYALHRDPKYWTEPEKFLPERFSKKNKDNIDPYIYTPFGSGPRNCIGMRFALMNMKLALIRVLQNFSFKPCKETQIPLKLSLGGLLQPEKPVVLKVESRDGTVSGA
Description: as §1, §2, §3, §4, §5, §6

hERG ion channel = target: T7, hERG ion channel (Homo sapiens, UniProt Q12809); test: Inhibitory effect on hERG ion channels (manual patch clamp); assay type: cell-based; details: HEK293 cells stably expressing hERG channels, read-out: hERG (IC50, manupatch)
T7 construct: host or cells: HEK293
T7 sequence (Q12809 whole entry): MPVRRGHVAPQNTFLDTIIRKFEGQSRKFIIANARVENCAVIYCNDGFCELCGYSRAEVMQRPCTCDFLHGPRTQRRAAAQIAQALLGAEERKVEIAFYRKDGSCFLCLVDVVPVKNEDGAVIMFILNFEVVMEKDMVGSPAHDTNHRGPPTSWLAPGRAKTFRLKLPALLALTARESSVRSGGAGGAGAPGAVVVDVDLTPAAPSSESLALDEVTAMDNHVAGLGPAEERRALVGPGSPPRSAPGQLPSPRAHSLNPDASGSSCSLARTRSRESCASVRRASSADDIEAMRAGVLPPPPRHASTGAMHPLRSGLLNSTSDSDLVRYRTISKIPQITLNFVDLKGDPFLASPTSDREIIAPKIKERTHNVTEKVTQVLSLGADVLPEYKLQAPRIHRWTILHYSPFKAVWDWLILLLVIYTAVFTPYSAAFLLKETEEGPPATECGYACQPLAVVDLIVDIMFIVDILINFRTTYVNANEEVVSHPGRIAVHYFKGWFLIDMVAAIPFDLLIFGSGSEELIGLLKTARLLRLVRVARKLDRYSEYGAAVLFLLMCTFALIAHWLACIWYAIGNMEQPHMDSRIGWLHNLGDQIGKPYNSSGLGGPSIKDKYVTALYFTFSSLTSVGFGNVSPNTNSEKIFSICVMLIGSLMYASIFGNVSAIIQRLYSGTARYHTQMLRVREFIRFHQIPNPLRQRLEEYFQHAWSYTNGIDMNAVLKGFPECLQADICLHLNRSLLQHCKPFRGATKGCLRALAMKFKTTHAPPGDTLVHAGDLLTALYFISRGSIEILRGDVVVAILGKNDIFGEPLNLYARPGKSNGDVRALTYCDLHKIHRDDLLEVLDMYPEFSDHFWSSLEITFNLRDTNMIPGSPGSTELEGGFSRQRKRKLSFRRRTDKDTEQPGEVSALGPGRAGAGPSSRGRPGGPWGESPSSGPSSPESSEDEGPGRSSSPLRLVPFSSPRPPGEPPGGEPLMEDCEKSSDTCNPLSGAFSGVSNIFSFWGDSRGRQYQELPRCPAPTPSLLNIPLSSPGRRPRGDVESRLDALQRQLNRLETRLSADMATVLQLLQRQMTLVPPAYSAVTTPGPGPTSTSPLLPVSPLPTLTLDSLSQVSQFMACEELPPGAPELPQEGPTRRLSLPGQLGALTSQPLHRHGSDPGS
Description: In this experiment, the inhibitory effect of the compound on the hERG ion channel was detected by a manual patch clamp electrophysiological method, and the cardiac safety was evaluated based on the single concentration inhibition rate or IC50 of the compound.
The cells used in this experiment were HEK293 cell lines transfected with hERG cDNA and stably expressing hERG channels (#60187, provided by BPS, P3-P23 generations were used for experimental research). The cells was cultured in a medium containing the following components: MEM medium, 10% (v/v) inactivated fetal bovine serum, 1 mM sodium pyruvate, 500 µg geneticin, 0.1 mM non-essential amino acids, 100 U penicillin-streptomycin. HEK293 hERG cells were grown in a culture flask containing the above culture solution and cultured in an incubator at 37°C and 5% CO2. […]
A manual patch clamp system (HEKA EPC-10 signal amplifier and digital conversion system, purchased from HEKA Electronics, Germany) was used to record whole-cell currents in electrophysiological experiments. […] After the hERG current recorded in the above steps reached stabilization under the continuous perfusion of extracellular solution in the recording chamber, different concentrations of the compound to be tested could be perfused until the inhibitory effect of the drug on the hERG current reached a stable state. […]

Structure (SMILES) | Dmax (IRAK4 [1]) [%] | DC50 (IRAK4 [1]) [nM] | DC50 (IRAK4 [2]) [nM] | Dmax (IRAK4 [2]) [%] | IC50 (CYP1A2) [µM] | IC50 (CYP2C19) [µM] | IC50 (CYP2D6) [µM] | IC50 (CYP2C9) [µM] | IC50 (CYP3A4; substrate Midazolam, read-out: IC50 (µM) CYP3A4-M) [µM] | IC50 (CYP3A4; substrate Testosterone, read-out: IC50 (µM) CYP3A4-T) [µM] | IC50 (hERG ion channel) [nM]
Cn1c(=O)n(C2CCC(=O)NC2=O)c2cccc(N3CCC(N4CCN(C[C@H]5CC[C@H](n6cc(-n7cc(-c8cnn9ccc(N[C@@H]%10CCCC[C@@H]%10O)nc89)nn7)c(C(F)F)n6)CC5)CC4)CC3)c21 (stereo partly drawn) [Example 155] | > 80 | < 0.5 | < 10 | > 70 | – | – | – | – | – | – | –
Cn1c(=O)n(C2CCC(=O)NC2=O)c2cccc(N3CCN(C[C@H]4CC[C@H](n5cc(-n6cc(-c7cnn8ccc(N9CCC[C@@H](O)C9)nc78)nn6)c(C(F)F)n5)CC4)CC3)c21 (stereo partly drawn) [Example 243] | > 80 | < 0.5 | < 10 | > 70 | – | – | – | – | – | – | –
Cn1c(=O)n(C2CCC(=O)NC2=O)c2cccc(N3CCN(C4CCN(C[C@H]5CC[C@H](n6cc(-n7cc(-c8cnn9ccc(N%10CCC[C@@H](O)C%10)nc89)nn7)c(C(F)F)n6)CC5)CC4)CC3)c21 (stereo partly drawn) [Example 245] | > 80 | < 0.5 | < 10 | > 70 | – | – | – | – | – | – | –
Cn1c(=O)n(C2CCC(=O)NC2=O)c2cccc(N3CCC4(CCN(C[C@H]5CC[C@H](n6cc(-n7cc(-c8cnn9ccc(N%10CCC[C@@H](O)C%10)nc89)nn7)c(C(F)F)n6)CC5)C4)CC3)c21 (stereo partly drawn) [Example 248] | > 80 | < 0.5 | < 10 | > 70 | – | – | – | – | – | – | –
C[C@H]1CN(c2cccc3c2n(C)c(=O)n3C2CCC(=O)NC2=O)CCN1C[C@H]1CC[C@H](n2cc(-n3cc(-c4cnn5ccc(N6CCC[C@H](N)C6)nc45)nn3)c(C(F)F)n2)CC1 (stereo partly drawn) [Example 285] | > 80 | < 0.5 | > 30 | 60 to 70 | – | – | – | – | – | – | –
Cn1c(=O)n(C2CCC(=O)NC2=O)c2cccc(C#CCOC3CCN(C[C@H]4CC[C@H](n5cc(NC(=O)c6cnn7ccc(N8C[C@H]9C[C@@H]8CO9)nc67)c(C(F)F)n5)CC4)CC3)c21 (stereo partly drawn) [KT474, reference compound] | – | – | – | – | > 30 | 3.81 | > 30 | 9.61 | 15.1 | > 30 | 2650

From patent EP4759807A1, “PROTEOLYSIS TARGETING CHIMERA COMPOUND FOR DEGRADING IRAK4 AND USE THEREOF” (Shenzhen Zhongge Biological Technology Co., Ltd., priority 2023, dated 2025)
